Tested on: 616215-338-R-J1-PDC complex spheroid viability
Experiment: Anticancer human tumor 616215-338-R-J1-PDC patient-derived colon adenocarcinoma cell line growth inhibition [POLQ]
Conditions: for IC50: curve of first compound; for viability, T/C: stronger effect = lower value
Procedure, shortened: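 Growth inhibition in 3D: complex spheroids (tumor PDC, HUVEC, MSC) treated with POLQ inhibitor combinations; where Cmax unknown, highest tested concentration 10 microM, except SN-38 at 1 microM.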

[1] = second compound 0.0316 µM, first compound 0.0316 µM
[2] = second compound 0.0316 µM, first compound 0.1 µM
[3] = second compound 0.0316 µM, first compound 0.316 µM
[4] = second compound 0.0316 µM, first compound 1 µM
[5] = second compound 0.0316 µM, first compound 3.16 µM
[6] = second compound 0.0316 µM, first compound 10 µM
[7] = second compound 0.1 µM, first compound 0.0316 µM
[8] = second compound 0.1 µM, first compound 0.1 µM
[9] = second compound 0.1 µM, first compound 0.316 µM
[10] = second compound 0.1 µM, first compound 1 µM
[11] = second compound 0.1 µM, first compound 3.16 µM
[12] = second compound 0.1 µM, first compound 10 µM
[13] = second compound 0.316 µM, first compound 0.0316 µM
[14] = second compound 0.316 µM, first compound 0.1 µM
[15] = second compound 0.316 µM, first compound 0.316 µM
[16] = second compound 0.316 µM, first compound 1 µM
[17] = second compound 0.316 µM, first compound 3.16 µM
[18] = second compound 0.316 µM, first compound 10 µM
[19] = second compound 1 µM, first compound 0.0316 µM
[20] = second compound 1 µM, first compound 0.1 µM
[21] = second compound 1 µM, first compound 0.316 µM
[22] = second compound 1 µM, first compound 1 µM
[23] = second compound 1 µM, first compound 3.16 µM
[24] = second compound 1 µM, first compound 10 µM
[25] = second compound 3.16 µM, first compound 0.0316 µM
[26] = second compound 3.16 µM, first compound 0.1 µM
[27] = second compound 3.16 µM, first compound 0.316 µM
[28] = second compound 3.16 µM, first compound 1 µM
[29] = second compound 3.16 µM, first compound 3.16 µM
[30] = second compound 3.16 µM, first compound 10 µM
[31] = second compound 10 µM, first compound 0.0316 µM
[32] = second compound 10 µM, first compound 0.1 µM
[33] = second compound 10 µM, first compound 0.316 µM
[34] = second compound 10 µM, first compound 1 µM
[35] = second compound 10 µM, first compound 3.16 µM
[36] = second compound 10 µM, first compound 10 µM
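Further: spheroids exposed to compounds for one week before readout.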
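Wherever viability, T/C is given: percent viability relative to DMSO vehicle wells taken as 100%.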

Work on CC(=O)O[C@H]1C(=O)[C@@]2(C)[C@H]([C@H](OC(=O)c3ccccc3)[C@]3(O)C[C@H](OC(=O)[C@H](O)[C@@H](NC(=O)c4ccccc4)c4ccccc4)C(C)=C1C3(C)C)[C@]1(OC(C)=O)CO[C@@H]1C[C@@H]2O + Cc1cccc(N(C)C(=O)C2C(O)CCN2c2nc(C)cc(C(F)(F)F)c2C#N)c1 yielded an IC50 (second compound 0.0316 µM) of less than 0.00949 µM, an IC50 (second compound 0.1 µM) of less than 0.00949 µM and an IC50 (second compound 0.316 µM) of less than 0.00949 µM. For the same molecule, the IC50 (second compound 1 µM) was less than 0.00949 µM, the IC50 (second compound 3.16 µM) was less than 0.00949 µM and the IC50 (second compound 10 µM) was less than 0.00949 µM. For the same molecule, the viability, T/C (second compound 0.0316 µM, first compound 0.00949 µM) was 34.7%, the viability, T/C (second compound 0.0316 µM, first compound 0.03 µM) was 20.2% and the viability, T/C (second compound 0.0316 µM, first compound 0.0949 µM) was 20.4%. For the same molecule, the viability, T/C (second compound 0.0316 µM, first compound 0.3 µM) was 18.9%, the viability, T/C (second compound 0.0316 µM, first compound 0.949 µM) was 19.3% and the viability, T/C (second compound 0.0316 µM, first compound 3 µM) was 19.1%. The viability, T/C (second compound 0.1 µM, first compound 0.00949 µM) was 31.6%, the viability, T/C (second compound 0.1 µM, first compound 0.03 µM) was 22.5% and the viability, T/C (second compound 0.1 µM, first compound 0.0949 µM) was 17.3%. It also gave a viability, T/C (second compound 0.1 µM, first compound 0.3 µM) of 21.5%, a viability, T/C (second compound 0.1 µM, first compound 0.949 µM) of 17.3% and a viability, T/C (second compound 0.1 µM, first compound 3 µM) of 17.4%. It also gave a viability, T/C (second compound 0.316 µM, first compound 0.00949 µM) of 39.5%, a viability, T/C (second compound 0.316 µM, first compound 0.03 µM) of 23.8% and a viability, T/C (second compound 0.316 µM, first compound 0.0949 µM) of 22.5%. For the same molecule, the viability, T/C (second compound 0.316 µM, first compound 0.3 µM) was 15.8%, the viability, T/C (second compound 0.316 µM, first compound 0.949 µM) was 17.7% and the viability, T/C (second compound 0.316 µM, first compound 3 µM) was 16.4%. The viability, T/C (second compound 1 µM, first compound 0.00949 µM) was 36%, the viability, T/C (second compound 1 µM, first compound 0.03 µM) was 27.6% and the viability, T/C (second compound 1 µM, first compound 0.0949 µM) was 22.1%. For the same molecule, the viability, T/C (second compound 1 µM, first compound 0.3 µM) was 13.1%, the viability, T/C (second compound 1 µM, first compound 0.949 µM) was 19% and the viability, T/C (second compound 1 µM, first compound 3 µM) was 18.8%. For the same molecule, the viability, T/C (second compound 3.16 µM, first compound 0.00949 µM) was 40.9%, the viability, T/C (second compound 3.16 µM, first compound 0.03 µM) was 21.6% and the viability, T/C (second compound 3.16 µM, first compound 0.0949 µM) was 23.9%. The viability, T/C (second compound 3.16 µM, first compound 0.3 µM) was 15.6%, the viability, T/C (second compound 3.16 µM, first compound 0.949 µM) was 21.7% and the viability, T/C (second compound 3.16 µM, first compound 3 µM) was 17.4%. The viability, T/C (second compound 10 µM, first compound 0.00949 µM) was 33.5%, the viability, T/C (second compound 10 µM, first compound 0.03 µM) was 26.9% and the viability, T/C (second compound 10 µM, first compound 0.0949 µM) was 21.2%. For the same molecule, the viability, T/C (second compound 10 µM, first compound 0.3 µM) was 14.6%, the viability, T/C (second compound 10 µM, first compound 0.949 µM) was 21.6% and the viability, T/C (second compound 10 µM, first compound 3 µM) was 14.6%.

With COc1cc(C2c3cc4c(cc3C(OC3OC5COC(C)OC5C(O)C3O)C3COC(=O)C23)OCO4)cc(OC)c1O (stereo not drawn) + Cc1cccc(N(C)C(=O)C2C(O)CCN2c2nc(C)cc(C(F)(F)F)c2C#N)c1 the IC50 (second compound 0.0316 µM) was greater than 10 µM, the IC50 (second compound 0.1 µM) was greater than 10 µM and the IC50 (second compound 0.316 µM) was 9.66 µM. For the same molecule, the IC50 (second compound 1 µM) was 9.43 µM, the IC50 (second compound 3.16 µM) was greater than 10 µM and the IC50 (second compound 10 µM) was 9.51 µM. The viability, T/C [1] was 95.8%, the viability, T/C [2] was 102% and the viability, T/C [3] was 85.3%. For the same molecule, the viability, T/C [4] was 94%, the viability, T/C [5] was 70.9% and the viability, T/C [6] was 61.5%. It also gave a viability, T/C [7] of 94.8%, a viability, T/C [8] of 95.5% and a viability, T/C [9] of 94.1%. It also gave a viability, T/C [10] of 77.9%, a viability, T/C [11] of 80.6% and a viability, T/C [12] of 50.8%. It also gave a viability, T/C [13] of 95.4%, a viability, T/C [14] of 101% and a viability, T/C [15] of 88.6%. For the same molecule, the viability, T/C [16] was 85.1%, the viability, T/C [17] was 73.4% and the viability, T/C [18] was 48.8%. The viability, T/C [19] was 94.4%, the viability, T/C [20] was 96.5% and the viability, T/C [21] was 85.4%. For the same molecule, the viability, T/C [22] was 81.4%, the viability, T/C [23] was 76.7% and the viability, T/C [24] was 47.2%. It also gave a viability, T/C [25] of 105%, a viability, T/C [26] of 106% and a viability, T/C [27] of 80.5%. The viability, T/C [28] was 81.7%, the viability, T/C [29] was 78% and the viability, T/C [30] was 48.9%. It also gave a viability, T/C [31] of 107%, a viability, T/C [32] of 102% and a viability, T/C [33] of 68.4%. For the same molecule, the viability, T/C [34] was 93.3%, the viability, T/C [35] was 67.4% and the viability, T/C [36] was 44.7%.

In the case of COc1cccc2c1C(=O)c1c(O)c3c(c(O)c1C2=O)CC(O)(C(=O)CO)CC3OC1CC(N)C(O)C(C)O1 (stereo not drawn) + Cc1cccc(N(C)C(=O)C2C(O)CCN2c2nc(C)cc(C(F)(F)F)c2C#N)c1, the IC50 (second compound 0.0316 µM) is reported as 1.07 µM, the IC50 (second compound 0.1 µM) is reported as 1 µM and the IC50 (second compound 0.316 µM) is reported as 0.785 µM. For the same molecule, the IC50 (second compound 1 µM) was 0.688 µM, the IC50 (second compound 3.16 µM) was 0.665 µM and the IC50 (second compound 10 µM) was 0.823 µM. The viability, T/C [1] was 95.8%, the viability, T/C [2] was 92.5% and the viability, T/C [3] was 79.8%. The viability, T/C [4] was 55.9%, the viability, T/C [5] was 6.78% and the viability, T/C [6] was 0.53%. It also gave a viability, T/C [7] of 109%, a viability, T/C [8] of 92.1% and a viability, T/C [9] of 80%. The viability, T/C [10] was 57.5%, the viability, T/C [11] was 6.89% and the viability, T/C [12] was 0.26%. For the same molecule, the viability, T/C [13] was 106%, the viability, T/C [14] was 83.4% and the viability, T/C [15] was 69.2%. For the same molecule, the viability, T/C [16] was 56.7%, the viability, T/C [17] was 3.48% and the viability, T/C [18] was 0.22%. For the same molecule, the viability, T/C [19] was 111%, the viability, T/C [20] was 85.8% and the viability, T/C [21] was 71.2%. The viability, T/C [22] was 48.3%, the viability, T/C [23] was 3.44% and the viability, T/C [24] was 0.22%. It also gave a viability, T/C [25] of 96.6%, a viability, T/C [26] of 79.9% and a viability, T/C [27] of 65.5%. It also gave a viability, T/C [28] of 48.9%, a viability, T/C [29] of 1.58% and a viability, T/C [30] of 0.25%. It also gave a viability, T/C [31] of 83.2%, a viability, T/C [32] of 82.6% and a viability, T/C [33] of 76.7%. The viability, T/C [34] was 44.7%, the viability, T/C [35] was 0.88% and the viability, T/C [36] was 0.31%.

Molecule O=c1[nH]cc(F)c(=O)[nH]1 + Cc1cccc(N(C)C(=O)C2C(O)CCN2c2nc(C)cc(C(F)(F)F)c2C#N)c1 has an IC50 (second compound 0.0316 µM) greater than 10 µM, an IC50 (second compound 0.1 µM) greater than 10 µM and an IC50 (second compound 0.316 µM) greater than 10 µM. The IC50 (second compound 1 µM) was greater than 10 µM, the IC50 (second compound 3.16 µM) was greater than 10 µM and the IC50 (second compound 10 µM) was greater than 10 µM. For the same molecule, the viability, T/C [1] was 92.1%, the viability, T/C [2] was 108% and the viability, T/C [3] was 69.8%. It also gave a viability, T/C [4] of 68.6%, a viability, T/C [5] of 61.2% and a viability, T/C [6] of 56.3%. It also gave a viability, T/C [7] of 101%, a viability, T/C [8] of 108% and a viability, T/C [9] of 68.7%. It also gave a viability, T/C [10] of 61.7%, a viability, T/C [11] of 60.1% and a viability, T/C [12] of 63.4%. The viability, T/C [13] was 102%, the viability, T/C [14] was 116% and the viability, T/C [15] was 75.6%. For the same molecule, the viability, T/C [16] was 57.5%, the viability, T/C [17] was 56.9% and the viability, T/C [18] was 66.8%. The viability, T/C [19] was 106%, the viability, T/C [20] was 99.7% and the viability, T/C [21] was 68.6%. The viability, T/C [22] was 65.1%, the viability, T/C [23] was 56.2% and the viability, T/C [24] was 58.2%. It also gave a viability, T/C [25] of 99.9%, a viability, T/C [26] of 102% and a viability, T/C [27] of 70%. For the same molecule, the viability, T/C [28] was 63.6%, the viability, T/C [29] was 59.9% and the viability, T/C [30] was 64.2%. It also gave a viability, T/C [31] of 97.6%, a viability, T/C [32] of 106% and a viability, T/C [33] of 70.3%. For the same molecule, the viability, T/C [34] was 54.9%, the viability, T/C [35] was 54.5% and the viability, T/C [36] was 59.6%.

— PubChem BioAssay AID1963843 (Molecular Pharmacology Branch, DTP, NCI, 2024)
